Measurements from patent publication EP3360539A1, “PHARMACEUTICAL FORMULATION” (SapioTec GmbH, priority 2017, dated 2018).
≈ marks a conversion by molar mass, not a printed value.

Key:
[1] = pH 9
[2] = in HPBCD (10%); Fuchs et al. 2014; cited from earlier work

Compound: O=C1CN(/N=C/c2ccc(-c3ccc([N+](=O)[O-])cc3)o2)C(O)=N1 [Dantrolen-Natrium]
- solubility thermodynamic at 24 h (physchem; 25% hpbcd in deionized water, Gelöstes Dantrolen-Natrium): 15.6 mg/mL (≈ 49.6 mM)
- solubility thermodynamic at 24 h (physchem; 25% hpbcd in deionized water, pH 9, Gelöstes Dantrolen-Natrium): 16 mg/mL (≈ 50.9 mM)
- solubility thermodynamic at 24 h (physchem; 25% hpbcd, 1% tris, water, pH 9, Gelöstes Dantrolen-Natrium): 14.4 mg/mL (≈ 45.8 mM)
- solubility thermodynamic at 24 h (physchem; water, 25% hpbcd, 2% glycerol, pH 9, organic solvent or mixture, Gelöstes Dantrolen-Natrium): 9.5 mg/mL (≈ 30.2 mM)
- solubility thermodynamic at 24 h (physchem; water, 25% hpbcd, arginine, pH 9, Gelöstes Dantrolen-Natrium): 8.5 mg/mL (≈ 27 mM)
- solubility thermodynamic at 24 h (physchem; water, 25% hpbcd, edta, pH 9, Gelöstes Dantrolen-Natrium): 3.6 mg/mL (≈ 11.5 mM)
- solubility thermodynamic at 24 h (physchem; water, 25% hpbcd, lysine, pH 9, Gelöstes Dantrolen-Natrium): 15.7 mg/mL (≈ 50 mM)
- Löslichkeit [1]: bemerkenswerte Steigerung der Löslichkeit
- Konzentration des gelösten Dantrolens in Lösung [2]: 0,137 mg/ml
